Active and inactive are the calls of the source.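 The calls were made as follows: active = IC50 at or below a set limit above the highest tested dose; inconclusive = flat curve with 30 to 70% inhibition, or poor fit; inactive = the rest.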
Biological target: Glycogen synthase kinase-3 beta (Homo sapiens) (UniProt P49841)
Test: concentration-response blocking of human GSK3B – biochemical, luminescence, cell-free homogeneous, retest, dose response (AID 434954)
Settings: recombinant GSK3beta, ADP-Glo luminescence, 60 min

Glycogen synthase kinase-3 beta (Homo sapiens), sequence (P49841 whole entry, looked up): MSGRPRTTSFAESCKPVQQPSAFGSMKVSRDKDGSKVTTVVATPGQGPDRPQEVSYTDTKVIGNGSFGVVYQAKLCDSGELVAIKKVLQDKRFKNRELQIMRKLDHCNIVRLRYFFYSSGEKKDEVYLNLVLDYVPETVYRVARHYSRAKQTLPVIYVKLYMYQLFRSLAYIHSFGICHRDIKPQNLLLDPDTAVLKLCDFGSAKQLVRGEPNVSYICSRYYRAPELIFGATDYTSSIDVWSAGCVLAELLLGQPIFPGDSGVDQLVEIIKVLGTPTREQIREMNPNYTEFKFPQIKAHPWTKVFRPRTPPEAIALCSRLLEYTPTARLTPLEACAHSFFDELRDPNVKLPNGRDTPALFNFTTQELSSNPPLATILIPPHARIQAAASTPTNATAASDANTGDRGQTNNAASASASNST

| Compound | IC50 |
| --- | --- |
| CCCCOC(=O)C1=C(C)Nc2ncnn2C1c1cc(OC)c(OC)cc1OC (stereo not given) | > 30 µM (inactive) |
| O=C(O)Cn1cc(/C=N/Nc2ccc([N+](=O)[O-])cn2)c2ccccc21 | 8.24 µM |
| O=C1CC(c2c[nH]c3ccccc23)C(=O)N1c1ccccc1 (stereo not given) | > 30 µM (inactive) |
| Cc1c(C#N)c(O)[nH]c(=O)c1N=Nc1ccc(S(N)(=O)=O)cc1 | 0.917 µM |
| CSc1nc2c(c(=O)[nH]1)C(c1ccccc1)C1=C(CC(C)(C)CC1=O)N2 (stereo not given) | > 30 µM (inactive) |
| COc1ccc(/C=N/Nc2ccc([N+](=O)[O-])cc2)cc1O | > 30 µM (inactive) |
| CC1(C)CC(=O)C2=C(C1)Nc1ccccc1NC2c1ccc(F)cc1 (stereo not given) | > 30 µM (inactive) |
| COc1cc(C2C(C(=O)c3cccs3)=C(O)C(=O)N2CCN2CCOCC2)ccc1OCCC(C)C (stereo not given) | > 30 µM (inactive) |
| COc1cc(-c2[nH]nc3c2C(c2ccco2)C(C#N)=C(N)O3)cc(OC)c1OC (stereo not given) | 8.59 µM |
| COC(=O)c1ccc(N2C(=O)CC(N3CCN(C(=O)c4ccco4)CC3)C2=O)cc1 (stereo not given) | > 30 µM (inactive) |
| CCc1ccccc1N1C(=O)CC(N2CCc3ccccc32)C1=O (stereo not given) | > 30 µM (inactive) |
| COc1cc(C2C3=C(CC(C)(C)CC3=O)Nc3c2c(=O)[nH]c(=O)n3Cc2ccccc2)ccc1O (stereo not given) | > 30 µM (inactive) |
| CCOc1ccc(/C=C2/C(=N)N3OC(C)=CC3=NC2=O)cc1OC | > 30 µM (inactive) |
| O=C(O)c1ccccc1N/N=C\c1ccnc2ccccc12 | > 30 µM (inactive) |
| O=C(O)c1cc(-c2ccc(/C=N/Nc3ccc(Cl)cc3)o2)ccc1Cl | > 30 µM (inactive) |
| O=C(O)CCn1cc(/C=N/O)c(-c2cccc([N+](=O)[O-])c2)n1 | 7.38 µM |
| Cc1[nH]nc2c1C(c1ccc(F)cc1)C1=C(CC(C)(C)CC1=O)N2 (stereo not given) | 3.93 µM |
| CCN(CC)CCN1C(=O)C(=O)/C(=C(/O)c2ccc(S(=O)(=O)N3CCOCC3)cc2)C1c1ccccc1 (stereo not given) | > 30 µM (inactive) |
| Cc1ccccc1CSc1nc2n(n1)C(c1cccs1)C1=C(CCCC1=O)N2 (stereo not given) | > 30 µM (inactive) |
| Cc1cc(-c2[nH]nc3c2C(c2cccc(O)c2)C(C#N)=C(N)O3)c(C)s1 (stereo not given) | 25.4 µM |
| COc1ccc(C2C3=C(CCCC3=O)Nc3n[nH]c(C)c32)cc1OC (stereo not given) | > 30 µM (inactive) |
| CC1(C)CC(=O)C2=C(C1)NC1=C(C(=O)c3ccccc31)C2c1ccc(O)cc1 (stereo not given) | > 30 µM (inactive) |
| COc1ccc(C2CC(=O)C3=C(C2)Nc2ncnn2C3c2ccccc2C)cc1 (stereo not given) | > 30 µM (inactive) |
| CCOc1ccc(N2C(=O)C(Cl)=C(Nc3ccccc3O)C2=O)cc1 | > 30 µM (inactive) |
| CCOC(=O)C1=C(C)Nc2ncnn2C1c1cc(Br)ccc1F (stereo not given) | 24 µM |

| Compound | IC50 |
| --- | --- |
| Nc1nc(F)nc2c1ncn2[C@@H]1O[C@H](CO)[C@@H](O)[C@@H]1O | > 30 µM (inactive) |
| CC1=C(C(=O)OCc2ccccc2)C(c2cccnc2)n2ncnc2N1 (stereo not given) | 28 µM |
| N=C(N)N=Nc1c(O)[nH]c2ccc(Br)cc12 | 31.4 µM |
| O/N=C/c1cn(-c2ccccc2)nc1-c1cccnc1 | 6.45 µM |
| COc1ccc(COC(=O)C2=C(C)NC(=O)NC2c2ccc(O)c(OC)c2)cc1 (stereo not given) | > 30 µM (inactive) |
| N#CC(=C=[N-])c1nc2ccccc2nc1-[n+]1cccc(NC(=O)c2ccccc2)c1 | > 30 µM (inactive) |
| CCN(CC)S(=O)(=O)c1cccc(N2CC(O)=C(c3ccccc3)C2=N)c1 | > 30 µM (inactive) |
| Oc1ccc(/C=N/Nc2ncc(Br)cn2)c(O)c1 | 12.3 µM |
| COc1ccc(-c2nn(-c3ccccc3)cc2/C=N/O)cc1 | 0.432 µM |
| COc1cccc(C2C3=C(CCCC3=O)Nc3[nH]n(-c4ccccc4)c(=O)c32)c1 (stereo not given) | > 30 µM (inactive) |
| Cc1ccc(C2C3=C(CC(C)(C)CC3=O)Nc3n[nH]c(C)c32)cc1 (stereo not given) | 9.26 µM |
| COc1ccc(-c2nn(-c3ccccc3)cc2/C=N/Nc2ccc3ccccc3n2)cc1OC | > 30 µM (inactive) |
| CC1=C(C(=O)OC(C)C)C(c2c[nH]c3ccccc23)n2ncnc2N1 (stereo not given) | 1.81 µM |
| CCOc1cc(C2C3=C(CC(C)(C)CC3=O)Nc3n[nH]c(C)c32)ccc1O (stereo not given) | 3.32 µM |
| Cc1[nH]nc2c1C(c1ccc(N(C)C)cc1)C1=C(CC(C)(C)CC1=O)N2 (stereo not given) | 28 µM |
| CCc1ccc(C2NC(=S)NC3=C2C(=O)CC(C)(C)C3)cc1 (stereo not given) | > 30 µM (inactive) |
| CC1(C)CC(=O)C2=C(C1)Nc1[nH]c(=S)[nH]c(=O)c1C2c1ccccc1 (stereo not given) | > 30 µM (inactive) |
| O/N=C/c1ccc(OCc2ccccc2)c(Cl)c1 | > 30 µM (inactive) |
| CCOC(=O)/C(C(=O)Nc1ccc(Cl)cc1Cl)=C1/NC(C)(C)Cc2ccccc21 | > 30 µM (inactive) |
| COc1ccc(C2C(C(C)=O)=C(O)C(=O)N2c2nccs2)c(OC)c1 (stereo not given) | > 30 µM (inactive) |
| COc1cccc(C2C3=C(CC(C)(C)CC3=O)Nc3cc4c(cc32)OCO4)c1 (stereo not given) | > 30 µM (inactive) |
| CCCC1=C(C(=O)OCC)C(c2sccc2C)n2ncnc2N1 (stereo not given) | > 30 µM (inactive) |
| Cc1ccccc1/C=N/Nc1ncnc2nc[nH]c12 | 17.1 µM |
| COc1cc(/C=N/Nc2ccc([N+](=O)[O-])cn2)cc(OC)c1O | 5.41 µM |
| CCOC(=O)C1=C(CN2CCSCC2)NC(=O)NC1c1cc(C)ccc1C (stereo not given) | > 30 µM (inactive) |

| Compound | IC50 |
| --- | --- |
| Cc1c(C(=O)O)cccc1-n1c(C)cc(/C=N/Nc2ccc([N+](=O)[O-])cn2)c1C | 21.3 µM |
| C/C(=N\O)c1ncc(C(F)(F)F)cc1Cl | > 30 µM (inactive) |
| COc1cc(CN=Cc2c(O)n(C(C)(C)C)c(=O)[nH]c2=O)cc(OC)c1 | > 30 µM (inactive) |
| CC1(C)CC(=O)C2=C(C1)Nc1cc3c(cc1C2c1ccc(F)cc1)OCO3 (stereo not given) | > 30 µM (inactive) |
| Cc1ccc(/C=N/Nc2ncnc3nc[nH]c23)cc1 | 30.1 µM |
| COc1cc(/C=N/Nc2nc(Nc3ccccc3)nc(N3CCCCC3)n2)ccc1OCC(=O)O | > 30 µM (inactive) |
| Oc1[nH]c2ccccc2c1C=Nc1ccc2c(c1)OCO2 | 11.4 µM |
| CC1=C(C(=O)Nc2ccccc2F)C(c2ccsc2)C2=C(CC(C)(C)CC2=O)N1 (stereo not given) | > 30 µM (inactive) |
| CCOC(=O)C1=C(C)Nc2ncnn2C1c1ccc(N(C)C)cc1 (stereo not given) | > 30 µM (inactive) |
| COc1cccc(/C=N/Nc2cc(Cl)nc(C)n2)c1O | > 30 µM (inactive) |
| Nc1ncnc2c1ncn2[C@@H]1O[C@H](CO)[C@@H](O)[C@H]1O | > 30 µM (inactive) |
| COc1ccc(-c2nn(-c3ccccc3)cc2/C=N/N2C(=O)CSC2=S)cc1 | > 30 µM (inactive) |
| Cc1nn(-c2ccccn2)c2c1C(c1ccsc1)C1=C(CCCC1=O)N2 (stereo not given) | > 30 µM (inactive) |
| CC[n+]1c(/C=C/Nc2ccccc2)sc2ccccc21 | > 30 µM (inactive) |
| CC(C)n1c(O)c(C=NCc2cccnc2)c(=O)[nH]c1=S | > 30 µM (inactive) |
| CSc1nc2c(c(=O)[nH]1)C(c1cccs1)C1=C(CCCC1=O)N2 (stereo not given) | > 30 µM (inactive) |
| Nc1nc(F)nc2c1ncn2[C@@H]1O[C@H](CO)[C@@H](O)[C@H]1O | > 30 µM (inactive) |
| O=C(O)c1cc(N/N=C/c2ccc(-c3ccc(F)cc3)o2)ccc1Cl | > 30 µM (inactive) |
| Cc1ccc(C2C3=C(CC(C)(C)CC3=O)Nc3onc(C)c32)cc1 (stereo not given) | > 30 µM (inactive) |
| CC1(C)CC(=O)C2=C(C1)Nc1ccccc1NC2c1cccs1 (stereo not given) | > 30 µM (inactive) |
| O=C1CCCC2=C1C(c1cccs1)n1nc(SCc3ccccc3)nc1N2 (stereo not given) | > 30 µM (inactive) |
| CC(C)Sc1nc2c(c(=O)[nH]1)C(c1cccs1)C1=C(CC(C)(C)CC1=O)N2 (stereo not given) | > 30 µM (inactive) |
| COc1ccc(C2C3=C(CC(C)(C)CC3=O)Nc3n[nH]c(C)c32)cc1 (stereo not given) | 28.3 µM |
| O=C1C(=O)N(c2ccccn2)C(c2ccc(Br)cc2)/C1=C(/O)c1ccc(Br)cc1 (stereo not given) | > 30 µM (inactive) |
| O=[N+]([O-])c1cc(/C=N\O)ccc1Oc1ccc(F)cc1 | 23 µM |

| Compound | IC50 |
| --- | --- |
| O=C(O)c1ccc(N/N=C/c2ccc(-c3cccc(Cl)c3)o2)cc1 | > 30 µM (inactive) |
| Nc1ncnc2c1ncn2C1OC(COP(=O)(O)O)C(O)C1O (stereo not given) | > 30 µM (inactive) |
| C(=N\Nc1nccc(-c2cccnc2)n1)/c1ccccc1 | 16.9 µM |
| CCOC(=O)C1=C(C)Nc2ncnn2C1c1cccnc1 (stereo not given) | > 30 µM (inactive) |
| Cc1c(C#N)c(O)[nH]c(=O)c1N=Nc1ccc(Br)cc1C(=O)O | > 30 µM (inactive) |
| O=C(CC1SC(N2CCCCC2)=NC1=O)Nc1cccc(C(F)(F)F)c1 (stereo not given) | > 30 µM (inactive) |
| COc1cc(/C=N\Nc2ccc([N+](=O)[O-])cc2)ccc1OCC(=O)Nc1ccc(C)c(C)c1 | > 30 µM (inactive) |
| CC1=C(C#N)C(c2ccc(O)cc2)C2=C(CC(C)(C)CC2=O)N1 (stereo not given) | > 30 µM (inactive) |
| CCOC(=O)C1=C(C(F)(F)F)Nc2ncnn2C1c1cc(OC)ccc1OC (stereo not given) | > 30 µM (inactive) |
| CC1=C(C(=O)OCC2CCCO2)C(c2ccsc2)C2=C(CC(C)(C)CC2=O)N1 (stereo not given) | > 30 µM (inactive) |
| COc1ccc(OC)c(C2Nc3ccccc3NC3=C2C(=O)CC(C)(C)C3)c1 (stereo not given) | > 30 µM (inactive) |
| CC1=C(C(=O)Nc2ccccc2F)C(c2cccs2)C2=C(CCCC2=O)N1 (stereo not given) | > 30 µM (inactive) |
| Cc1ccsc1/C=N/Nc1ncnc2nc[nH]c12 | 9 µM |
| CC1=C(C(=O)OCC2CCCO2)C(c2ccc(O)cc2)NC(=O)N1 (stereo not given) | > 30 µM (inactive) |
| Cc1ccc2c(c1)NC(c1cccs1)C1=C(CC(C)(C)CC1=O)N2 (stereo not given) | > 30 µM (inactive) |
| C=CCOC(=O)C1=C(C)Nc2ncnn2C1c1cccs1 (stereo not given) | > 30 µM (inactive) |
| CCOc1ccc(/C=N/Nc2ccccn2)cc1OC | > 30 µM (inactive) |
| O=C(O)c1cccc(-c2ccc(/C=N/Nc3ccc([N+](=O)[O-])cc3)o2)c1 | > 30 µM (inactive) |
| CC1=C(C(N)=O)C(c2sccc2C)n2nnnc2N1 (stereo not given) | > 30 µM (inactive) |
| CCCCCCn1c(O)c(C=NCCCn2ccnc2)c(=O)[nH]c1=O | 14.3 µM |
| CCc1ccc(/C=N/Nc2ncnc3nc[nH]c23)cc1 | 26.6 µM |
| CC1=C(C(=O)N2CCCCC2)C(c2cccs2)C2=C(CCCC2=O)N1 (stereo not given) | > 30 µM (inactive) |
| Cc1[nH]nc2c1C(c1cccs1)C1=C(CCCC1=O)N2 (stereo not given) | 10.6 µM |
| Cc1noc2c1C(c1ccc(N(C)C)cc1)C1=C(CC(C)(C)CC1=O)N2 (stereo not given) | > 30 µM (inactive) |
| Nc1ncnc2c1ncn2[C@@H]1O[C@H](COP(=O)(O)O)[C@@H](O)[C@H]1O | > 30 µM (inactive) |

Source: PubChem BioAssay AID434954 (Broad Institute, 2010)
